Reference: patent publication US12077483B2, “Modified amine lipids” (Intellia Therapeutics, Inc., priority 2018, dated 2024)
Each block holds one compound with its values, some of them ahead of it.

Columns and labels:
[1] = pKa of amine lipid by TNS fluorescence; type: physicochemical; settings: probe TNS (6-(p-toluidino)-2-naphthalenesulfonic acid sodium salt), unformulated amine lipid in ethanol, sodium phosphate buffers -9.0
Outline: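 Unformulated amine lipid, about 100 μM final, in 0.1 M sodium phosphate buffers spanning pH 4.5–9.0 with TNS. Fluorescence read at ex 321/em 448 nm; normalized data fitted sigmoidally to give pKa.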

[2] = LNP average particle size and polydispersity by dynamic light scattering; type: physicochemical; settings: LNP with the compound as amine lipid
Outline: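 LNPs were diluted in PBS to a count rate of about 200-400 kcps and measured by DLS on a Zetasizer. Size is the intensity-weighted Z-average diameter, reported with number-average diameter, and the polydispersity index describes the spread of sizes around the mean.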

[3] = RNA encapsulation efficiency of LNP (Ribogreen fluorescence assay); type: physicochemical; settings: LNP with the compound as amine lipid
Outline: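 LNP samples diluted in 1× TE with or without 0.2% Triton-X 100 for total or free RNA, stained ~10 min at room temperature in the dark with RiboGreen; fluorescence ex 488/em 525 nm against RNA standard curves. Encapsulation efficiency = (Total RNA−Free RNA)/Total RNA.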

mouse TTR = assay: Serum TTR ELISA in mice after LNP delivery; type: in vivo; settings: mouse serum, relative to TSS control of same experiment
Outline: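 Female CD-1 mice received LNP at 0.1 mpk unless noted; serum was collected 6 or 7 days later. Total serum TTR was measured by mouse prealbumin ELISA at 10,000- and/or 2,500-fold dilution and is expressed as a percentage of vehicle control.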

[4] = Expt. 10, composition ratio (mol %) 50/9/38/3 for Cmpnd 49, 50/10/38.5/1.5 for the others
[5] = Expt. 6, composition ratio (mol %) 50/9/38/3 for Cmpnd 49, 50/10/38.5/1.5 for the others
[6] = Expt. 1, composition ratio (mol %) 50/9/38/3 for Cmpnd 49, 50/10/38.5/1.5 for the others
[7] = Expt. 7, composition ratio (mol %) 50/9/38/3 for Cmpnd 49, 50/10/38.5/1.5 for the others
[8] = Expt. 2, composition ratio (mol %) 50/9/39.5/3 for Cmpnd 49, 50/9/39.5/1.5 for the others
[9] = Expt. 4, composition ratio (mol %) 50/9/38/3 for Cmpnd 49, 50/10/38.5/1.5 for the others
[10] = Expt. 8, composition ratio (mol %) 50/9/38/3 for Cmpnd 49, 50/10/38.5/1.5 for the others
[11] = Expt. 9, composition ratio (mol %) 50/9/38/3 for Cmpnd 49, 50/10/38.5/1.5 for the others

SMILES: CCCCC/C=C\C/C=C\CCCCCCCC(=O)OCC(COC(=O)CCCCCCC/C=C\C/C=C\CCCCC)OC(=O)CCC(CCCCCCCC)OC(=O)OC1CCN(C)CC1 (stereo not drawn) [Compound 92, 2-((4-((((1-methylpiperidin-4-yl)oxy)carbonyl)oxy)dodecanoyl)oxy)propane-1,3-diyl (9Z,9′Z,12Z,12′Z)-bis(octadeca-9,12-dienoate)]
pKa [1]: 5.96
Num Ave Size (nm) [2, 4]: 51 nm
PDI [2, 4]: 0.06
Z-Ave Size (nm) [2, 4]: 67 nm
Encapsulation (%) [3, 4]: 98%
Serum TTR % TSS (mouse TTR; dose 0.03 mpk): 120% TSS

SMILES: CCCCC/C=C\C/C=C\CCCCCCCC(=O)OCC(COC(=O)CCCCCCC/C=C\C/C=C\CCCCC)OC(=O)CCC(CC(CC)CC)OC(=O)NCCN(C)CC (stereo not drawn) [Compound 103, 2-((6-ethyl-4-(((2-(ethyl(methyl)amino)ethyl)carbamoyl)oxy)octanoyl)oxy)propane-1,3-diyl (9Z,9′Z,12Z,12′Z)-bis(octadeca-9,12-dienoate)]
pKa [1]: 6.09
Num Ave Size (nm) [2, 5]: 82 nm
PDI [2, 5]: 0.01
Z-Ave Size (nm) [2, 5]: 102.00 nm
Encapsulation (%) [3, 5]: 91%
Serum TTR % TSS (mouse TTR; dose 0.03 mpk): 72.23 % TSS
Serum TTR % TSS (mouse TTR; dose 0.1 mpk): 29.05 % TSS

SMILES: CCCCC/C=C\C/C=C\CCCCCCCC(=O)OCC(COC(=O)CCCCCCC/C=C\C/C=C\CCCCC)OC(=O)CCC(CCCCCCC)OC(=O)OCCCN1CCCC1 (stereo not drawn) [Compound 75, 2-((4-(((3-(pyrrolidin-1-yl)propoxy)carbonyl)oxy)undecanoyl)oxy)propane-1,3-diyl (9Z,9′Z,12Z,12′Z)-bis(octadeca-9,12-dienoate)]
pKa [1]: 6.17
Num Ave Size (nm) [2, 7]: 73.46 nm
PDI [2, 7]: 0.02
Z-Ave Size (nm) [2, 7]: 89.78 nm
Encapsulation (%) [3, 7]: 98%
Serum TTR % TSS (mouse TTR; dose 0.03 mpk): 45.098 % TSS
Serum TTR % TSS (mouse TTR; dose 0.1 mpk): 11.996 % TSS

SMILES: CCCCC/C=C\C/C=C\CCCCCCCC(=O)OCC(COC(=O)CCCCCCC/C=C\C/C=C\CCCCC)OC(=O)CCC(CCCC)OC(=O)NCC1CCCN1C (stereo not drawn) [Compound 67, 2-((4-((((1-methylpyrrolidin-2-yl)methyl)carbamoyl)oxy)octanoyl)oxy)propane-1,3-diyl (9Z,9′Z,12Z,12′Z)-bis(octadeca-9,12-dienoate)]
pKa [1]: 6.43
Num Ave Size (nm) [2, 8]: 82.14 nm
PDI [2, 8]: 0.043
Z-Ave Size (nm) [2, 8]: 102.20 nm
Encapsulation (%) [3, 8]: 99%
Serum TTR % TSS (mouse TTR; dose 0.03 mpk): 65.41 % TSS

SMILES: CCCCC/C=C\C/C=C\CCCCCCCC(=O)OCC(COC(=O)CCCCCCC/C=C\C/C=C\CCCCC)OC(=O)CCC(CCCCCC)OC(=O)NCC1CCCN1C (stereo not drawn) [Compound 44, 2-((4-((((1-methylpyrrolidin-2-yl)methyl)carbamoyl)oxy)decanoyl)oxy)propane-1,3-diyl (9Z,9′Z,12Z,12′Z)-bis(octadeca-9,12-dienoate)]
pKa [1]: 6.45
Num Ave Size (nm) [2, 8]: 78.34 nm
PDI [2, 8]: 0.034
Z-Ave Size (nm) [2, 8]: 97.65 nm
Num Ave Size (nm) [2, 10]: 85.76 nm
PDI [2, 10]: 0.034
Z-Ave Size (nm) [2, 10]: 104.3 nm
Encapsulation (%) [3, 8]: 99%
Encapsulation (%) [3, 10]: 99%
Serum TTR % TSS (mouse TTR; dose 0.03 mpk): 119.97 % TSS
Serum TTR % TSS (mouse TTR; dose 0.1 mpk): 78.79 % TSS

SMILES: CCCCC/C=C\C/C=C\CCCCCCCC(=O)OCC(COC(=O)CCCCCCC/C=C\C/C=C\CCCCC)OC(=O)CCC(CCC(C)CCCC(C)C)OC(=O)NCCN1CCCC1 (stereo not drawn) [Compound 105, 2-((7,11-dimethyl-4-(((2-(pyrrolidin-1l-yl)ethyl)carbamoyl)oxy)dodecanoyl)oxy)propane-1,3-diyl (9Z,9′Z,12Z,12′Z)-bis(octadeca-9,12-dienoate)]
pKa [1]: 6.53
Num Ave Size (nm) [2, 11]: 64 nm
PDI [2, 11]: 0.02
Z-Ave Size (nm) [2, 11]: 80 nm
Encapsulation (%) [3, 11]: 99%
Serum TTR % TSS (mouse TTR; dose 0.03 mpk): 47.97 % TSS

Second part, led by results:

pKa [1]: 6.23
Num Ave Size (nm) [2, 5]: 68 nm
PDI [2, 5]: 0.04
Z-Ave Size (nm) [2, 5]: 87.00 nm
Encapsulation (%) [3, 5]: 98%
SMILES: CCCCC/C=C\C/C=C\CCCCCCCC(=O)OCC(COC(=O)CCCCCCC/C=C\C/C=C\CCCCC)OC(=O)C1(C(CCCCCCCC)OC(=O)NCCN(C)CC)CC1 (stereo not drawn) [Compound 86, 2-((1-(1-(((2-(ethyl(methyl)amino)ethyl)carbamoyl)oxy)nonyl)cyclopropane-1-carbonyl)oxy)propane-1,3-diyl (9Z,9′Z,12Z,12′Z)-bis(octadeca-9,12-dienoate)]
Serum TTR % TSS (mouse TTR; dose 0.03 mpk): 93.10 % TSS
Serum TTR % TSS (mouse TTR; dose 0.1 mpk): 28.80 % TSS

pKa [1]: 6.32
Num Ave Size (nm) [2, 6]: 87.26 nm
PDI [2, 6]: 0.04
Z-Ave Size (nm) [2, 6]: 106.40 nm
Encapsulation (%) [3, 6]: 97%
SMILES: CCCCC/C=C\C/C=C\CCCCCCCC(=O)OCC(COC(=O)CCCCCCCC(=O)OCCCCCCCCCCC)OC(=O)CC(CCCCCCCC)OC(=O)NCCN(C)CC (stereo not drawn) [Compound 62, 1-(3-methyl-13-((((9Z,12Z)-octadeca-9,12-dienoyl)oxy)methyl)-9-octyl-7,11-dioxo-8,12-dioxa-3,6-diazatetradecan-14-yl) 9-undecyl nonanedioate]
Serum TTR % TSS (mouse TTR; dose 0.1 mpk): 57.89 % TSS

pKa [1]: 6.96
Num Ave Size (nm) [2, 4]: 86 nm
PDI [2, 4]: 0.01
Z-Ave Size (nm) [2, 4]: 103 nm
Encapsulation (%) [3, 4]: 98%
SMILES: CCCCC/C=C\C/C=C\CCCCCCCC(=O)OCC(COC(=O)CCCCCCC/C=C\C/C=C\CCCCC)OC(=O)CCC(CCCCCCCC)OC(=O)NCCN1CCC1 (stereo not drawn) [Compound 93, 2-((4-(((2-(azetidin-1-yl)ethyl)carbamoyl)oxy)dodecanoyl)oxy)propane-1,3-diyl (9Z,9′Z,12Z,12′Z)-bis(octadeca-9,12-dienoate)]
Serum TTR % TSS (mouse TTR; dose 0.03 mpk): 100% TSS

pKa [1]: 6.26
Num Ave Size (nm) [2, 6]: 74.35 nm
PDI [2, 6]: 0.03
Z-Ave Size (nm) [2, 6]: 90.75 nm
Encapsulation (%) [3, 6]: 98%
SMILES: CCCCC/C=C\C/C=C\CCCCCCCC(=O)OCC(COC(=O)CCCCCCC/C=C\C/C=C\CCCCC)OC(=O)CC(CCCCCCCC)OC(=O)NCCN(C)CC (stereo not drawn) [Compound 52, 2-((3-(((2-(ethyl(methyl)amino)ethyl)carbamoyl)oxy)undecanoyl)oxy)propane-1,3-diyl (9Z,9′Z,12Z,12′Z)-bis(octadeca-9,12-dienoate)]
Serum TTR % TSS (mouse TTR; dose 0.1 mpk): 17.31 % TSS

pKa [1]: 6.41
Num Ave Size (nm) [2, 9]: 76.59 nm
PDI [2, 9]: 0.029
Z-Ave Size (nm) [2, 9]: 95.81 nm
Encapsulation (%) [3, 9]: 97%
SMILES: CCCCC/C=C\C/C=C\CCCCCCCC(=O)OCC(COC(=O)CCCCCCC/C=C\C/C=C\CCCCC)OC(=O)CCC(CCCCCCC)OC(=O)NCCN(C)CC (stereo not drawn) [Compound 73, 2-((4-(((2-(ethyl(methyl)amino)ethyl)carbamoyl)oxy)undecanoyl)oxy)propane-1,3-diyl (9Z,9′Z,12Z,12′Z)-bis(octadeca-9,12-dienoate)]
Serum TTR % TSS (mouse TTR; dose 0.03 mpk): 25% TSS
Serum TTR % TSS (mouse TTR; dose 0.1 mpk): 4% TSS

pKa [1]: 6.3
Num Ave Size (nm) [2, 6]: 86.19 nm
PDI [2, 6]: 0.02
Z-Ave Size (nm) [2, 6]: 106.40 nm
Encapsulation (%) [3, 6]: 97%
SMILES: CCCCC/C=C\C/C=C\CCCCCCCC(=O)OCC(COC(=O)CCCCCCCC(=O)OCCCCCCCCCCC)OC(=O)CCCC(CCCCCCCC)OC(=O)NCCN(C)CC (stereo not drawn) [Compound 64, 1-(3-methyl-15-((((9Z,12Z)-octadeca-9,12-dienoyl)oxy)methyl)-9-octyl-7,13-dioxo-8,14-dioxa-3,6-diazahexadecan-16-yl) 9-undecyl nonanedioate]
Serum TTR % TSS (mouse TTR; dose 0.1 mpk): 85.39 % TSS

pKa [1]: 6.34
Num Ave Size (nm) [2, 6]: 88.36 nm
PDI [2, 6]: 0.03
Z-Ave Size (nm) [2, 6]: 109.90 nm
Encapsulation (%) [3, 6]: 97%
SMILES: CCCCCCCCCCCOC(=O)CCCCCCCC(=O)OCC(COC(=O)CCCCCCCC(=O)OCCCCCCCCCCC)OC(=O)CC(CCCCCCCC)OC(=O)NCCN(C)CC (stereo not drawn) [Compound 59, O′1,O1-(2-((3-(((2-(ethyl(methyl)amino)ethyl)carbamoyl)oxy)undecanoyl)oxy)propane-1,3-diyl) 9,9′-diundecyl di(nonanedioate)]
Serum TTR % TSS (mouse TTR; dose 0.1 mpk): 80.70 % TSS

pKa [1]: 6.14
Num Ave Size (nm) [2, 4]: 73 nm
PDI [2, 4]: 0.03
Z-Ave Size (nm) [2, 4]: 89 nm
Encapsulation (%) [3, 4]: 98%
SMILES: CCCCC/C=C\C/C=C\CCCCCCCC(=O)OCC(COC(=O)CCCCCCC/C=C\C/C=C\CCCCC)OC(=O)CCC(CCCCCCCC)OC(=O)NCCN(CC)CC (stereo not drawn) [Compound 96, 2-((4-(((2-(diethylamino)ethyl)carbamoyl)oxy)dodecanoyl)oxy)propane-1,3-diyl (9Z,9′Z,12Z,12′Z)-bis(octadeca-9,12-dienoate)]
Serum TTR % TSS (mouse TTR; dose 0.03 mpk): 70% TSS
